# Results taken from publication PMC12203862, “BroadAMP-GPT: AI-Driven generation of broad-spectrum antimicrobial peptides for combating multidrug-resistant ESKAPE pathogens” (Gut Microbes, 2025).
# How the values were obtained:
# [1] = system: S. aureus ATCC 29213; experiment: microbe, parasite or virus in culture; type: cell-based; details: Staphylococcus aureus, ATCC29213; Table 1; S. aureus ATCC 29213; broth microdilution, CLSI M100-ED34; read-out: MIC
# [2] = system: E. faecalis ES01; experiment: microbe, parasite or virus in culture; type: cell-based; details: Enterococcus faecalis; Table 1; E. faecalis ES01; ermB, vanB; broth microdilution; read-out: MIC
# Experimental: (§1) Bacterial strains and growth conditions: All Gram-negative and Gram-positive bacterial strains (Supplementary Table S8) were cultured in Luria-Bertani (LB) or trypticase soy broth (TSB) agar plates, respectively, and incubated overnight at 37 °C unless specifically indicated. A single colony of the tested bacterial strains was inoculated into medium broth with shaking at 220 rpm for further experiments.
# (§2) Minimal inhibitory concentrations: Antimicrobial susceptibility testing was performed by broth microdilution method for AMPs against Gram-positive and Gram-negative pathogens above mentioned, following the methods of document CLSI M100-ED34.[43] The MICs were defined as the lowest concentrations that inhibit visible growth of the tested bacteria. E. coli ATCC 25,922 and S. aureus ATCC 29,213 were served as quality controls.
# [3] = system: E. faecalis J2; experiment: microbe, parasite or virus in culture; type: cell-based; details: Enterococcus faecalis; Table 1; E. faecalis J2; ermB, optrA; broth microdilution; read-out: MIC
# Experimental: as §1, §2
# [4] = system: S. agalactiae DL03; experiment: microbe, parasite or virus in culture; type: cell-based; details: Streptococcus agalactiae; Table 1; S. agalactiae DL03; ermB; broth microdilution; read-out: MIC
# Experimental: as §1, §2
# [5] = system: K. pneumoniae 9-1; experiment: microbe, parasite or virus in culture; type: cell-based; details: Klebsiella pneumoniae, 91; Table 1; K. pneumoniae 9-1; broth microdilution; read-out: MIC
# Experimental: as §1, §2
# [6] = system: S. aureus M147-2; experiment: microbe, parasite or virus in culture; type: cell-based; details: Staphylococcus aureus, M1472; Table 1; S. aureus M147-2; ermB, tetL, cfr; broth microdilution; read-out: MIC
# Experimental: as §1, §2
# [7] = system: S. aureus M92-1; experiment: microbe, parasite or virus in culture; type: cell-based; details: Staphylococcus aureus, M921; Table 1; S. aureus M92-1; ermB, tetL, optrA; broth microdilution; read-out: MIC
# Experimental: as §1, §2
# [8] = system: E. faecium HFY01; experiment: microbe, parasite or virus in culture; type: cell-based; details: Enterococcus faecium; Table 1; E. faecium HFY01; broth microdilution; read-out: MIC
# Experimental: as §1, §2
# [9] = system: E. coli ATCC 25922; experiment: microbe, parasite or virus in culture; type: cell-based; details: Escherichia coli, ATCC25922; Table 1; E. coli ATCC 25922; broth microdilution; read-out: MIC
# Experimental: as §1, §2
# [10] = system: S. aureus YZSA-15; experiment: microbe, parasite or virus in culture; type: cell-based; details: Staphylococcus aureus, YZSA15; Table 1; S. aureus YZSA-15; ermC, vanB; broth microdilution; read-out: MIC
# Experimental: as §1, §2
# [11] = system: A. baumannii AB11; experiment: microbe, parasite or virus in culture; type: cell-based; details: Acinetobacter baumannii; Table 1; A. baumannii AB11; broth microdilution; read-out: MIC
# Experimental: as §1, §2
# [12] = system: E. faecalis JH2-2; experiment: microbe, parasite or virus in culture; type: cell-based; details: Enterococcus faecalis, JH22; Table 1; E. faecalis JH2-2; broth microdilution; read-out: MIC
# Experimental: as §1, §2
# [13] = system: P. aeruginosa PA14; experiment: microbe, parasite or virus in culture; type: cell-based; details: Pseudomonas aeruginosa; Table 1; P. aeruginosa PA14; broth microdilution; read-out: MIC
# Experimental: as §1, §2
# [14] = system: S. suis SH0918; experiment: microbe, parasite or virus in culture; type: cell-based; details: Streptococcus suis; Table 1; S. suis SH0918; ermB, tetO, optrA; broth microdilution; read-out: MIC
# Experimental: as §1, §2
# [15] = system: S. aureus YZSA-24; experiment: microbe, parasite or virus in culture; type: cell-based; details: Staphylococcus aureus, YZSA24; Table 1; S. aureus YZSA-24; ermC, mecA; broth microdilution; read-out: MIC
# Experimental: as §1, §2
# [16] = system: E. faecalis SF23-1; experiment: microbe, parasite or virus in culture; type: cell-based; details: Enterococcus faecalis, SF231; Table 1; E. faecalis SF23-1; ermB, tetL, cfr; broth microdilution; read-out: MIC
# Experimental: as §1, §2
# [17] = system: E. faecium QF31; experiment: microbe, parasite or virus in culture; type: cell-based; details: Enterococcus faecium; Table 1; E. faecium QF31; ermB, cfr; broth microdilution; read-out: MIC
# Experimental: as §1, §2
# [18] = system: P. aeruginosa PAO1; experiment: microbe, parasite or virus in culture; type: cell-based; details: Pseudomonas aeruginosa; Table 1; P. aeruginosa PAO1; broth microdilution; read-out: MIC
# Experimental: as §1, §2
# [19] = system: A. baumannii 7979; experiment: microbe, parasite or virus in culture; type: cell-based; details: Acinetobacter baumannii; Table 1; A. baumannii 7979; broth microdilution; read-out: MIC
# Experimental: as §1, §2
# [20] = system: S. pyogenes DL02; experiment: microbe, parasite or virus in culture; type: cell-based; details: Streptococcus pyogenes; Table 1; S. pyogenes DL02; ermB; broth microdilution; read-out: MIC
# Experimental: as §1, §2
# [21] = system: S. aureus YZSA-21; experiment: microbe, parasite or virus in culture; type: cell-based; details: Staphylococcus aureus, YZSA21; Table 1; S. aureus YZSA-21; ermC; broth microdilution; read-out: MIC
# Experimental: as §1, §2
# [22] = system: E. faecium MC38; experiment: microbe, parasite or virus in culture; type: cell-based; details: Enterococcus faecium; Table 1; E. faecium MC38; ermB, optrA; broth microdilution; read-out: MIC
# Experimental: as §1, §2
# [23] = system: S. suis P1/7; experiment: microbe, parasite or virus in culture; details: Streptococcus suis, P1/7
# Experimental: as §1
# as §2, with “bacteria.” for “bacteria. E. coli ATCC 25,922 and S. aureus ATCC 29,213 were served as quality controls.”
# [24] = system: S. enteritis S1; experiment: organism not typed; type: cell-based; details: Table 1; S. enteritis S1; broth microdilution; read-out: MIC
# Experimental: as §1, §2
MIC [1],MIC [2],MIC [3],MIC [4],MIC [5],MIC [6],MIC [7],MIC [8],MIC [9],MIC [10],MIC [11],MIC [12],MIC [13],MIC [14],MIC [15],MIC [16],MIC [17],MIC [18],MIC [19],MIC [20],Compound,further results
1 µg/mL,> 64 µg/mL,> 64 µg/mL,4 µg/mL,> 64 µg/mL,4 µg/mL,4 µg/mL,8 µg/mL,0.25 µg/mL,2 µg/mL,16 µg/mL,> 64 µg/mL,> 64 µg/mL,8 µg/mL,32 µg/mL,> 64 µg/mL,> 64 µg/mL,> 64 µg/mL,> 64 µg/mL,1 µg/mL,"CO[C@@]1(NC(=O)Cc2cccs2)C(=O)N2C(C(=O)O)=C(COC(N)=O)CS[C@@H]21 [FOX, Cefoxitin]",MIC [21]: 4 µg/mL; MIC [22]: > 64 µg/mL; MIC [23]: 1 µg/mL; MIC [24]: 32 µg/mL
0.25 µg/mL,0.5 µg/mL,16 µg/mL,< 0.06 µg/mL,> 64 µg/mL,16 µg/mL,16 µg/mL,< 0.06 µg/mL,1 µg/mL,0.25 µg/mL,< 0.06 µg/mL,4 µg/mL,16 µg/mL,16 µg/mL,0.5 µg/mL,16 µg/mL,16 µg/mL,8 µg/mL,> 64 µg/mL,2 µg/mL,"C[C@H]1c2cccc(O)c2C(=O)C2=C(O)[C@]3(O)C(=O)C(C(N)=O)=C(O)[C@@H](N(C)C)[C@@H]3[C@@H](O)[C@@H]21 [DOX, doxycycline]",MIC [21]: 0.25 µg/mL; MIC [22]: 16 µg/mL; MIC [23]: 0.125 µg/mL; MIC [24]: > 64 µg/mL
